The source of these data is patent US7317028B2, “Cell differentiation inducer” (Schering Aktiengesellschaft, priority 1996, dated 2008).

One series deals with A2780 cells. As to the kind of experiment: Test for induction of differentiation in A2780 cells (ALP activity, ALPmin). The series is classed as cell-based, human. Particulars: Homo sapiens, 72 h; A2780 cells, 3 days incubation; minimum concentration of the drug inducing increase of ALP activity. On the procedure: Increase of alkaline phosphatase (ALP) activity is known as an indicator for differentiation of human colon cancer cells. […] Thus, differentiation inducing action was evaluated using ALP activity as an indicator.
To each well of a 96-well plate was placed 0.1 mL of A2780 cells (15,000 cells/well) and the next day was added 0.1 mL of a sequential dilute of test solution with the medium. […] The reaction was quenched with 0.05 mL/well of 3N sodium hydroxide aq. For each well, an absorbance at 405 nm was measured to determine the minimum concentration of the drug inducing increase of ALP activity (ALPmin).

On to `COc1cc(C(=O)NCc2ccc(C(=O)Nc3ccccc3N)cc2)cc(OC)c1OC` [Example 7, N-(2-aminophenyl)-4-[N-(3,4,5-trimethoxybenzoyl)aminomethyl]benzamide], for which the melting point is 208 to 210 °C (dec.). In addition, in the series with A2780 cells, the minimal effective concentration is 1 µM.

Compound `Nc1ccccc1NC(=O)c1ccc(NC(=O)COCc2ccccn2)cc1` [Example 126, N-(2-aminophenyl)-4-[N-(pyridin-2-yl)methoxyacetylamino]benzamide] came in with a melting point of 171 to 173 °C. For the same compound, the minimal effective concentration in the series with A2780 cells came out at 3 µM.

`Cc1ncccc1COC(=O)NCc1ccc(C(=O)Nc2ccccc2N)cc1` [Example 56, N-(2-aminophenyl)-4-[N-(2-methylpyridin-3-yl)methoxycarbonylaminomethyl]benzamide] gave a melting point of 164 to 165 °C. Also, the minimal effective concentration in the series on A2780 cells was found to be 3 µM.

For `Nc1ccccc1NC(=O)c1ccc(NC(=O)CC(=O)Nc2cccnc2)cc1` [Example 122, N-(2-aminophenyl)-4-[3-[N-(pyridin-3-yl)amino]-1,3-dioxopropylamino]benzamide], the melting point was 196 °C (dec.). In addition, the minimal effective concentration in the series with A2780 cells came to 0.03 µM.

With `Nc1ccccc1NC(=O)c1ccc(CNC(=O)c2ccccc2Cl)cc1` [Example 2, N-(2-aminophenyl)-4-[N-(2-chlorobenzoyl)aminomethyl]benzamide], the melting point was 201 to 204 °C (dec.). Also, the minimal effective concentration in the series with A2780 cells is 3 µM.

With `Nc1ccccc1NC(=O)c1ccc(CNC(=O)OCc2ccncc2)cc1` [Example 60, N-(2-aminophenyl)-4-[N-(pyridin-4-yl)methoxycarbonylaminomethyl]benzamide], the melting point fell in the range of 180 to 183 °C. In the series on A2780 cells, this compound registered a minimal effective concentration of 3 µM.

`COc1ccc(N)c(NC(=O)c2ccc(CNC(=O)COc3cccnc3)cc2)c1` [Example 33, N-(2-amino-5-methoxyphenyl)-4-[N-(pyridin-3-yl)oxyacetylaminomethyl]benzamide] gave a melting point of 141 to 144 °C. Besides, the minimal effective concentration in the series on A2780 cells was 0.3 µM.

Take `Nc1ccccc1NC(=O)c1ccc(NC(=O)COCc2ccsc2)cc1` [Example 124, N-(2-aminophenyl)-4-[N-(thiophen-3-yl)methoxyacetylamino]benzamide]: the melting point fell in the range of 186 to 189 °C. In addition, the minimal effective concentration in the series with A2780 cells was 3 µM.

As for `Cl.Cl.Nc1ccccc1NC(=O)c1ccc(NC(=O)Cc2cccnc2)cc1` [Example 111, N-(2-aminophenyl)-4-[(pyridin-3-yl)acetylamino]benzamide dihydrochloride], the melting point was 182 to 189 °C (dec.). This compound also came in with a minimal effective concentration in the series on A2780 cells of 3 µM.

Take `Nc1cccc(COC(=O)NCc2ccc(C(=O)Nc3ccccc3N)cc2)c1` [Example 73, N-(2-aminophenyl)-4-[N-(3-aminophenyl)methoxycarbonylaminomethyl]benzamide]: the melting point is 149 to 153 °C (dec.). Moreover, the minimal effective concentration in the series on A2780 cells was 3 µM.

As for `Nc1ccccc1COC(=O)NCc1ccc(C(=O)Nc2ccccc2N)cc1` [Example 71, N-(2-aminophenyl)-4-[N-(2-aminophenyl)methoxycarbonylaminomethyl]benzamide], the melting point was 149 to 151 °C (dec.). Moreover, the minimal effective concentration with A2780 cells was determined as 10 µM.

Regarding `Cl.Nc1ccccc1NC(=O)c1ccc(CNC(=O)c2ccccc2[N+](=O)[O-])cc1` [Example 3, N-(2-aminophenyl)-4-[N-(2-nitrobenzoyl)aminomethyl]benzamide hydrochloride], the melting point is 210 to 212 °C (dec.). In the series on A2780 cells, this compound registered a minimal effective concentration of 3 µM.

Take `Cc1ncccc1C(=O)NCc1ccc(C(=O)Nc2ccccc2N)cc1` [Example 15, N-(2-aminophenyl)-4-[N-(2-methylnicotinoyl)aminomethyl]benzamide]: the melting point was 191 to 194 °C (dec.). In the series on A2780 cells, the minimal effective concentration was determined as 3 µM.

`COc1cccc(C(=O)NCc2ccc(C(=O)Nc3ccccc3N)cc2)c1` [Example 5, N-(2-aminophenyl)-4-[N-(3-methoxybenzoyl)aminomethyl]benzamide] registered a melting point of 182 to 185 °C. This compound registered a minimal effective concentration in the series on A2780 cells of 1 µM.

For the compound `CN(C(=O)COCc1cccnc1)c1ccc(C(=O)Nc2ccccc2N)cc1` [Example 125, N-(2-aminophenyl)-4-[N-methyl-N-(pyridin-3-yl)methoxyacetylamino]benzamide], the melting point was 180 to 183 °C (dec.). Besides, the minimal effective concentration with A2780 cells was 0.1 µM.

In the case of `Nc1ccccc1NC(=O)c1ccc(CNC(=O)c2ccno2)cc1` [Example 25, N-(2-aminophenyl)-4-[N-(isoxazol-5-yl)carbonylaminomethyl]benzamide], the melting point is 183 to 185 °C (dec.). The minimal effective concentration with A2780 cells amounted to 3 µM.

As for `Nc1ccccc1NC(=O)c1ccc(C(=O)NCCc2ccccc2)cc1` [Example 133, N-(2-aminophenyl)-4-[N-(2-phenylethyl)amino]carbonylbenzamide], the melting point was 237 to 240 °C (dec.). The compound also registered a minimal effective concentration in the series with A2780 cells of 3 µM.

`Cc1cccc(COC(=O)NCc2ccc(C(=O)Nc3ccccc3N)cc2)n1` [Example 53, N-(2-aminophenyl)-4-[N-(6-methylpyridin-2-yl)methoxycarbonylaminomethyl]benzamide] returned a melting point of 138 °C. The minimal effective concentration in the series with A2780 cells worked out at 3 µM.

On to `Nc1ccccc1NC(=O)c1ccc(CNC(=S)OCc2cccnc2)cc1` [Example 88, N-(2-aminophenyl)-4-[N-(pyridin-3-yl)methoxythiocarbonylaminomethyl]benzamide], for which the melting point is 154 to 156 °C (dec.). Further, the minimal effective concentration in the series on A2780 cells was 0.1 µM.

Compound `Nc1ccccc1NC(=O)c1ccc(CNC(=O)c2ccc3ncccc3c2)cc1` [Example 37, N-(2-aminophenyl)-4-[N-(quinolin-6-yl)carbonylaminomethyl]benzamide] gave a melting point of 209 to 210 °C. In the series with A2780 cells, this compound gave a minimal effective concentration of 1 µM.

With `Nc1ccccc1NC(=O)c1ccc(CNC(=O)c2cc3ncccc3o2)cc1` [Example 38, N-(2-aminophenyl)-4-[N-(furo[3,2-b]pyridin-2-yl)carbonylaminomethyl]benzamide], the melting point was 191 °C (dec.). This compound also showed a minimal effective concentration in the series on A2780 cells of 3 µM.

`Nc1ccccc1NC(=O)c1ccc(-n2cc(COCc3ccccn3)oc2=O)cc1` [Example 142, N-(2-aminophenyl)-4-[5-(pyridin-2-yl)methyloxymethyl-1,3-oxazolin-2-on-3-yl]benzamide] had a melting point of 172 to 174 °C. The compound also had a minimal effective concentration with A2780 cells of 0.1 µM.

For the compound `Nc1ccccc1NC(=O)c1ccc(CNC(=O)CCC(=O)c2cccnc2)cc1` [Example 31, N-(2-aminophenyl)-4-[N-[4-(pyridin-3-yl)-1,4-dioxobutyl]aminomethyl]benzamide], the melting point is 145 to 147 °C (dec.). Besides, in the series on A2780 cells, the minimal effective concentration was 10 µM.

Consider `Nc1ccc(CC(=O)Nc2ccc(C(=O)Nc3ccccc3N)cc2)cc1` [Example 106, N-(2-aminophenyl)-4-[(4-aminophenylacetyl)amino]benzamide], for which the melting point is 219 to 226 °C (dec.). For the same compound, the minimal effective concentration with A2780 cells came out at 1 µM.

Compound `CN1CCCC(COC(=O)NCc2ccc(C(=O)Nc3ccccc3N)cc2)C1` (stereo not shown) [Example 65, N-(2-aminophenyl)-4-[N-(1-methylpiperidin-3-yl)methoxycarbonylaminomethyl]benzamide] yielded a melting point of 130 to 135 °C. The same compound yielded a minimal effective concentration in the series with A2780 cells of 3 µM.

The compound `Nc1ccccc1NC(=O)c1ccc(CNC(=O)OCc2cnccn2)cc1` [Example 77, N-(2-aminophenyl)-4-[N-(pyrazin-2-yl)methoxycarbonylaminomethyl]benzamide] returned a melting point of 182 °C. This compound came in with a minimal effective concentration in the series on A2780 cells of 3 µM.

The compound `Nc1ccccc1NC(=O)c1ccc(NC(=O)COc2cccnc2)cc1` [Example 120, N-(2-aminophenyl)-4-[N-(pyridin-3-yl)oxyacetylamino]benzamide] registered a melting point of 175 to 179 °C. The compound further yielded a minimal effective concentration in the series with A2780 cells of 0.3 µM.

`Nc1ccccc1NC(=O)c1ccc(CNC(=O)OCc2cncs2)cc1` [Example 63, N-(2-aminophenyl)-4-[N-(thiazol-5-yl)methoxycarbonylaminomethyl]benzamide] registered a melting point of 168 to 175 °C. In addition, the minimal effective concentration in the series on A2780 cells was 3 µM.

`Nc1ccccc1NC(=O)c1ccc(CNC(=O)Oc2ccccc2)cc1` [Example 68, N-(2-aminophenyl)-4-[N-(phenoxycarbonyl)aminomethyl]benzamide] had a melting point of 174 to 175 °C. In the series with A2780 cells, this compound displayed a minimal effective concentration of 3 µM.

`COc1cncc(COC(=O)NCc2ccc(C(=O)Nc3ccccc3N)cc2)c1` [Example 76, N-(2-aminophenyl)-4-[N-(5-methoxypyridin-3-yl)methoxycarbonylaminomethyl]benzamide] returned a melting point of 169 to 170 °C. In the series on A2780 cells, the minimal effective concentration turned out to be 1 µM.

Turning to `Nc1ccccc1NC(=O)c1ccc(CNC(=O)OCCc2cccnc2)cc1` [Example 54, N-(2-aminophenyl)-4-[N-[2-(pyridin-3-yl)ethoxycarbonyl]aminomethyl]benzamide], the melting point was in the range of 120 to 125 °C. Further, in the series with A2780 cells, the minimal effective concentration was found to be 1 µM.

For the compound `Nc1ccccc1NC(=O)c1ccc(-n2cc(COc3cccc([N+](=O)[O-])c3)oc2=O)cc1` [Example 141, N-(2-aminophenyl)-4-[5-(3-nitrophenoxy)methyl-1,3-oxazolin-2-on-3-yl]benzamide], the melting point is 230 °C (dec.). Moreover, the minimal effective concentration in the series with A2780 cells turned out to be 1 µM.
